Results: publication PMC11352961, “Peptide dendrimers transfecting CRISPR/Cas9 plasmid DNA: optimization and mechanism” (RSC Chemical Biology, 2024)
Bridge positions count the residues as written; N and C are the ends. Square brackets hold non-standard residues; d marks the D form. Side chains are listed from the residue outwards. Peptide text beside a SMILES is read from it. I, II: the chains in the order shown. * marks the point of attachment. Stearoyl = CCCCCCCCCCCCCCCCCC(=O)*

Columns and labels:
[1] = test system: HEK293 cells; assay: Cell viability by PrestoBlue assay after transfection, HEK cells; format: cell-based; conditions: 4 h
[2] = test system: HeLa cells; assay: Cell viability by PrestoBlue assay after transfection, HeLa cells; format: cell-based; conditions: 4 h

Structure (SMILES)	% viability HEK cells [1]	% viability HeLa cells [2]
CCCCCCCCCCCCCCCCCC(=O)NCCCC[C@H](NC(=O)[C@H](CCCCNC(=O)[C@H](CC(C)C)NC(=O)[C@H](CCCNC(=N)N)NC(=O)[C@H](CCCCNC(=O)[C@H](CC(C)C)NC(=O)[C@H](CCCNC(=N)N)NC(=O)[C@H](CCCCNC(=O)[C@H](CC(C)C)NC(=O)[C@@H](N)CCCNC(=N)N)NC(=O)[C@H](CC(C)C)NC(=O)[C@@H](N)CCCNC(=N)N)NC(=O)[C@H](CC(C)C)NC(=O)[C@H](CCCNC(=N)N)NC(=O)[C@H](CCCCNC(=O)[C@H](CC(C)C)NC(=O)[C@@H](N)CCCNC(=N)N)NC(=O)[C@H](CC(C)C)NC(=O)[C@@H](N)CCCNC(=N)N)NC(=O)[C@H](CC(C)C)NC(=O)[C@H](CCCNC(=N)N)NC(=O)[C@H](CCCCNC(=O)[C@H](CC(C)C)NC(=O)[C@H](CCCNC(=N)N)NC(=O)[C@H](CCCCNC(=O)[C@H](CC(C)C)NC(=O)[C@@H](N)CCCNC(=N)N)NC(=O)[C@H](CC(C)C)NC(=O)[C@@H](N)CCCNC(=N)N)NC(=O)[C@H](CC(C)C)NC(=O)[C@H](CCCNC(=N)N)NC(=O)[C@H](CCCCNC(=O)[C@H](CC(C)C)NC(=O)[C@@H](N)CCCNC(=N)N)NC(=O)[C@H](CC(C)C)NC(=O)[C@@H](N)CCCNC(=N)N)C(=O)N[C@@H](CS)C(N)=O [Z24] (I: H-RLK([Leu-Arg])RLKRLKK(Stearoyl)C-NH2 / II: H-RLK([Leu-Arg])RLKRL / III: H-RLK([Leu-Arg])RL / IV: H-RLK([Leu-Arg])RL; amide I:6-IV:C, I:9-II:C, II:6-III:C)	86 ± 1%	91 ± 6%
CCCCCCCCCCCCCCCCCC(=O)NCCCC[C@H](NC(=O)[C@H](CCCCNC(=O)[C@H](CC(C)C)NC(=O)[C@H](CCCCN)NC(=O)[C@H](CCCCNC(=O)[C@H](CC(C)C)NC(=O)[C@H](CCCCN)NC(=O)[C@H](CCCCNC(=O)[C@H](CC(C)C)NC(=O)[C@@H](N)CCCCN)NC(=O)[C@H](CC(C)C)NC(=O)[C@@H](N)CCCCN)NC(=O)[C@H](CC(C)C)NC(=O)[C@H](CCCCN)NC(=O)[C@H](CCCCNC(=O)[C@H](CC(C)C)NC(=O)[C@@H](N)CCCCN)NC(=O)[C@H](CC(C)C)NC(=O)[C@@H](N)CCCCN)NC(=O)[C@H](CC(C)C)NC(=O)[C@H](CCCCN)NC(=O)[C@H](CCCCNC(=O)[C@H](CC(C)C)NC(=O)[C@H](CCCCN)NC(=O)[C@H](CCCCNC(=O)[C@H](CC(C)C)NC(=O)[C@@H](N)CCCCN)NC(=O)[C@H](CC(C)C)NC(=O)[C@@H](N)CCCCN)NC(=O)[C@H](CC(C)C)NC(=O)[C@H](CCCCN)NC(=O)[C@H](CCCCNC(=O)[C@H](CC(C)C)NC(=O)[C@@H](N)CCCCN)NC(=O)[C@H](CC(C)C)NC(=O)[C@@H](N)CCCCN)C(=O)N[C@@H](CS)C(N)=O [Z12] (I: H-KLK([Leu-Lys])KLKKLKK(Stearoyl)C-NH2 / II: H-KLK([Leu-Lys])KLKKL / III: H-KLK([Leu-Lys])KL / IV: H-KLK([Leu-Lys])KL; amide I:6-IV:C, I:9-II:C, II:6-III:C)	80 ± 5%	112 ± 10%
CC(C)C[C@H](NC(=O)[C@H](CC(C)C)NC(=O)[C@H](CC(C)C)NC(=O)[C@H](CC(C)C)NC(=O)[C@H](CC(C)C)NC(=O)[C@H](CCCCNC(=O)[C@H](CC(C)C)NC(=O)[C@H](CCCCN)NC(=O)[C@H](CCCCNC(=O)[C@H](CC(C)C)NC(=O)[C@H](CCCCN)NC(=O)[C@H](CCCCNC(=O)[C@H](CC(C)C)NC(=O)[C@@H](N)CCCCN)NC(=O)[C@H](CC(C)C)NC(=O)[C@@H](N)CCCCN)NC(=O)[C@H](CC(C)C)NC(=O)[C@H](CCCCN)NC(=O)[C@H](CCCCNC(=O)[C@H](CC(C)C)NC(=O)[C@@H](N)CCCCN)NC(=O)[C@H](CC(C)C)NC(=O)[C@@H](N)CCCCN)NC(=O)[C@H](CC(C)C)NC(=O)[C@H](CCCCN)NC(=O)[C@H](CCCCNC(=O)[C@H](CC(C)C)NC(=O)[C@H](CCCCN)NC(=O)[C@H](CCCCNC(=O)[C@H](CC(C)C)NC(=O)[C@@H](N)CCCCN)NC(=O)[C@H](CC(C)C)NC(=O)[C@@H](N)CCCCN)NC(=O)[C@H](CC(C)C)NC(=O)[C@H](CCCCN)NC(=O)[C@H](CCCCNC(=O)[C@H](CC(C)C)NC(=O)[C@@H](N)CCCCN)NC(=O)[C@H](CC(C)C)NC(=O)[C@@H](N)CCCCN)C(N)=O [Z3] (I: H-KLK([Leu-Lys])KLKKLKLLLLL-NH2 / II: H-KLK([Leu-Lys])KLKKL / III: H-KLK([Leu-Lys])KL / IV: H-KLK([Leu-Lys])KL; amide I:6-IV:C, I:9-II:C, II:6-III:C)	76 ± 7%	51 ± 5%
CCCCCCCCCCCCCCCCCC(=O)NCCCC[C@H](NC(=O)[C@H](CCCCNC(=O)[C@H](CC(C)C)NC(=O)[C@H](CCCNC(=N)N)NC(=O)[C@H](CCCCNC(=O)[C@H](CC(C)C)NC(=O)[C@H](CCCNC(=N)N)NC(=O)[C@H](CCCCNC(=O)[C@H](CC(C)C)NC(=O)[C@@H](N)CCCNC(=N)N)NC(=O)[C@H](CC(C)C)NC(=O)[C@@H](N)CCCNC(=N)N)NC(=O)[C@H](CC(C)C)NC(=O)[C@H](CCCNC(=N)N)NC(=O)[C@H](CCCCNC(=O)[C@H](CC(C)C)NC(=O)[C@@H](N)CCCNC(=N)N)NC(=O)[C@H](CC(C)C)NC(=O)[C@@H](N)CCCNC(=N)N)NC(=O)[C@H](CC(C)C)NC(=O)[C@H](CCCNC(=N)N)NC(=O)[C@H](CCCCNC(=O)[C@H](CC(C)C)NC(=O)[C@H](CCCNC(=N)N)NC(=O)[C@H](CCCCNC(=O)[C@H](CC(C)C)NC(=O)[C@@H](N)CCCNC(=N)N)NC(=O)[C@H](CC(C)C)NC(=O)[C@@H](N)CCCNC(=N)N)NC(=O)[C@H](CC(C)C)NC(=O)[C@H](CCCNC(=N)N)NC(=O)[C@H](CCCCNC(=O)[C@H](CC(C)C)NC(=O)[C@@H](N)CCCNC(=N)N)NC(=O)[C@H](CC(C)C)NC(=O)[C@@H](N)CCCNC(=N)N)C(=O)N[C@@H](C)C(N)=O [Z25] (I: H-RLK([Leu-Arg])RLKRLKK(Stearoyl)A-NH2 / II: H-RLK([Leu-Arg])RLKRL / III: H-RLK([Leu-Arg])RL / IV: H-RLK([Leu-Arg])RL; amide I:6-IV:C, I:9-II:C, II:6-III:C)	85 ± 2%	104 ± 8%
CCCCCCCCCCCCCCCCCC(=O)NCCCC[C@@H](NC(=O)[C@@H](CCCCNC(=O)[C@@H](CC(C)C)NC(=O)[C@@H](CC(C)C)NC(=O)[C@@H](CCCCNC(=O)[C@@H](CC(C)C)NC(=O)[C@@H](CC(C)C)NC(=O)[C@@H](CCCCNC(=O)[C@@H](CC(C)C)NC(=O)[C@H](N)CCCNC(=N)N)NC(=O)[C@@H](CC(C)C)NC(=O)[C@H](N)CCCNC(=N)N)NC(=O)[C@@H](CC(C)C)NC(=O)[C@@H](CC(C)C)NC(=O)[C@@H](CCCCNC(=O)[C@@H](CC(C)C)NC(=O)[C@H](N)CCCNC(=N)N)NC(=O)[C@@H](CC(C)C)NC(=O)[C@H](N)CCCNC(=N)N)NC(=O)[C@@H](CC(C)C)NC(=O)[C@@H](CC(C)C)NC(=O)[C@@H](CCCCNC(=O)[C@@H](CC(C)C)NC(=O)[C@@H](CC(C)C)NC(=O)[C@@H](CCCCNC(=O)[C@@H](CC(C)C)NC(=O)[C@H](N)CCCNC(=N)N)NC(=O)[C@@H](CC(C)C)NC(=O)[C@H](N)CCCNC(=N)N)NC(=O)[C@@H](CC(C)C)NC(=O)[C@@H](CC(C)C)NC(=O)[C@@H](CCCCNC(=O)[C@@H](CC(C)C)NC(=O)[C@H](N)CCCNC(=N)N)NC(=O)[C@@H](CC(C)C)NC(=O)[C@H](N)CCCNC(=N)N)C(N)=O [Z37] (I: H-[dR][dL][dK]([dL-dR])[dL][dL][dK][dL][dL][dK][dK](Stearoyl)-NH2 / II: H-[dR][dL][dK]([dL-dR])[dL][dL][dK][dL][dL] / III: H-[dR][dL][dK]([dL-dR])[dL][dL] / IV: H-[dR][dL][dK]([dL-dR])[dL][dL]; amide I:6-IV:C, I:9-II:C, II:6-III:C)	103 ± 1%	95 ± 5%
